Source: patent US7704995B2 (Exelixis, Inc., priority 2003, dated 2010)

Target: T1, Chk1 (Homo sapiens, UniProt O14757)
T1 construct: purchased Upstate Biotechnology
T1 sequence (O14757 1-476): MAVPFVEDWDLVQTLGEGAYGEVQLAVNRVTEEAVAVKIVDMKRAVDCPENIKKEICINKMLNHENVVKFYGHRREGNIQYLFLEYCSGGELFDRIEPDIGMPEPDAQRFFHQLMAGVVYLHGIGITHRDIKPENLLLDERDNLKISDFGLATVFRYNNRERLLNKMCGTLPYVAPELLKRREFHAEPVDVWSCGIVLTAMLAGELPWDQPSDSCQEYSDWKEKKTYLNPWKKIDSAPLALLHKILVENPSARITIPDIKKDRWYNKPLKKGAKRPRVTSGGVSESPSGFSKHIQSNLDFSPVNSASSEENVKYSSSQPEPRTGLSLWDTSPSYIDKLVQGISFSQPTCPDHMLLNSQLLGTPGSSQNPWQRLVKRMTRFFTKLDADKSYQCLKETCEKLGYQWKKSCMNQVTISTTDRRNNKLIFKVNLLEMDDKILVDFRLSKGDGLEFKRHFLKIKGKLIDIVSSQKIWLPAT
Assay: Chk1 kinase assay: incorporation of γ-33P ATP into immobilized myelin basic protein
Assay type: biochemical
Details: Table 11, Chk1 only; class symbols A-D; read-out: Chk1 IC50
How it was run: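 Plates coated with MBP, then kinase reactions in Hepes pH 7.6 buffer with 10 mM MgCl2 and 1% DMSO were started by adding unlabeled plus γ-33P ATP (10 μM for Chk1 at 10 nM enzyme; 30 μM for Chk2 at 20 nM enzyme). After 1 h at room temperature, plates were washed and counted.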

## Nc1ncc(-c2cccc(C(=O)NCc3ccc4c(c3)OCO4)c2)nc1C(=O)N[C@H]1CCCNC1 [Example 853, 3-amino-6-(3-{[(1,3-benzodioxol-5-ylmethyl)amino]carbonyl}phenyl)-N-[(3S)-piperidin-3-yl]pyrazine-2-carboxamide]
  IC50: < 50 nM

## COc1ccccc1CNC(=O)c1cccc(-c2cnc(N)c(C(=O)N[C@H]3CCCNC3)n2)c1 [Example 855, 3-amino-6-{3-[({[2-(methyloxy)phenyl]methyl}amino)carbonyl]phenyl}-N-[(3S)-piperidin-3-yl]pyrazine-2-carboxamide]
  IC50: < 50 nM

## COc1ccc(CNC(=O)c2cccc(-c3cnc(N)c(C(=O)N[C@H]4CCCNC4)n3)c2)c(OC)c1 [Example 856, 3-amino-6-{3-[({[2,4-bis(methyloxy)phenyl]methyl}amino)carbonyl]phenyl}-N-[(3S)-piperidin-3-yl]pyrazine-2-carboxamide]
  IC50: < 50 nM

## Cc1cc(Cl)ccc1CNC(=O)c1cccc(-c2cnc(N)c(C(=O)N[C@H]3CCCNC3)n2)c1 [Example 857, 3-amino-6-[3-({[(4-chloro-2-methylphenyl)methyl]amino}carbonyl)phenyl]-N-[(3S)-piperidin-3-yl]pyrazine-2-carboxamide]
  IC50: < 50 nM

## Cc1ccc(CNC(=O)c2cccc(-c3cnc(N)c(C(=O)N[C@H]4CCCNC4)n3)c2)c(F)c1F [Example 858, 3-amino-6-[3-({[(2,3-difluoro-4-methylphenyl)methyl]amino}carbonyl)phenyl]-N-[(3S)-piperidin-3-yl]pyrazine-2-carboxamide]
  IC50: < 50 nM

## CS(=O)(=O)c1ccc(CNC(=O)c2cccc(-c3cnc(N)c(C(=O)N[C@H]4CCCNC4)n3)c2)cc1 [Example 859, 3-amino-6-{3-[({[4-(methylsulfonyl)phenyl]methyl}amino)carbonyl]phenyl}-N-[(3S)-piperidin-3-yl]pyrazine-2-carboxamide]
  IC50: < 50 nM

## Nc1ncc(-c2cccc(C(=O)NCc3ccc4c(c3)OCCO4)c2)nc1C(=O)N[C@H]1CCCNC1 [Example 860, 3-amino-6-(3-{[(2,3-dihydro-1,4-benzodioxin-6-ylmethyl)amino]carbonyl}phenyl)-N-[(3S)-piperidin-3-yl]pyrazine-2-carboxamide]
  IC50: < 50 nM

## Nc1ncc(-c2cccc(C(=O)NCc3ccc(Cl)cc3)c2)nc1C(=O)N[C@H]1CCCNC1 [Example 861, 3-amino-6-[3-({[(4-chlorophenyl)methyl]amino}carbonyl)phenyl]-N-[(3S)-piperidin-3-yl]pyrazine-2-carboxamide]
  IC50: < 50 nM

## Nc1ncc(-c2cccc(C(=O)NCc3cc(Cl)ccc3F)c2)nc1C(=O)N[C@H]1CCCNC1 [Example 862, 3-amino-6-[3-({[(5-chloro-2-fluorophenyl)methyl]amino}carbonyl)phenyl]-N-[(3S)-piperidin-3-yl]pyrazine-2-carboxamide]
  IC50: < 50 nM

## Nc1ncc(-c2cccc(CN[C@H]3CCc4ccccc43)c2)nc1C(=O)N[C@H]1CN2CCC1CC2 [Example 863, 3-amino-N-[(3R)-1-azabicyclo[2.2.2]oct-3-yl]-6(3-{[(1S)-2,3-dihydro-1H-inden-1-ylamino]methyl}phenyl)pyrazine-2-carboxamide]
  IC50: 50 to 1000 nM

## CSc1ccc(CNC(=O)c2cccc(-c3cnc(N)c(C(=O)N[C@H]4CCCNC4)n3)c2)cc1 [Example 864, 3-amino-6-{3-[({[4-(methylthio)phenyl]methyl}amino)carbonyl]phenyl}-N-[(3S)-piperidin-3-yl]pyrazine-2-carboxamide]
  IC50: < 50 nM

## Nc1ncc(-c2cccc(C(=O)NCc3ccc(F)cc3F)c2)nc1-c1nc([C@H]2CCCNC2)n[nH]1 [Example 865, 3-(5-amino-6-{3-[(3S)-piperidin-3-yl]-1H-1,2,4-triazol-5-yl}pyrazin-2-yl)-N-[(2,4-difluorophenyl)methyl]benzamide]
  IC50: < 50 nM

## Nc1ncc(-c2cccc(C(=O)NC(Cc3ccccc3)c3ccccc3)c2)nc1C(=O)N[C@H]1CCCNC1 (stereo partly drawn) [Example 866, 3-amino-6-(3-{[(1,2-diphenylethyl)amino]carbonyl}phenyl)-N-[(3S)-piperidin-3-yl]pyrazine-2-carboxamide]
  IC50: < 50 nM

## Nc1ncc(-c2cccc(C(=O)NCc3ccc(F)c(F)c3)c2)nc1-c1nc([C@H]2CCCNC2)n[nH]1 [Example 867, 3-(5-amino-6-{3-[(3S)-piperidin-3-yl]-1H-1,2,4-triazol-5-yl}pyrazin-2-yl)-N-[(3,4-difluorophenyl)methyl]benzamide]
  IC50: < 50 nM

## Nc1ncc(-c2cccc(C(=O)NCc3cc(F)cc(F)c3)c2)nc1C(=O)N[C@H]1CCCNC1 [Example 868, 3-amino-6-[3-({[(3,5-difluorophenyl)methyl]amino}carbonyl)phenyl]-N-[(3S)-piperidin-3-yl]pyrazine-2-carboxamide]
  IC50: < 50 nM

## COC(=O)c1ccc(CNC(=O)c2cccc(-c3cnc(N)c(C(=O)N[C@H]4CCCNC4)n3)c2)cc1 [Example 869, methyl 4-[({[3-(5-amino-6-{[(3S)-piperidin-3-ylamino]carbonyl}pyrazin-2-yl)phenyl]carbonyl}amino)methyl]benzoate]
  IC50: < 50 nM

## Nc1ncc(-c2cccc(C(=O)NCc3ccc(Br)cc3)c2)nc1C(=O)N[C@H]1CCCNC1 [Example 870, 3-amino-6-[3-({[(4-bromophenyl)methyl]amino}carbonyl)phenyl]-N-[(3S)-piperidin-3-yl]pyrazine-2-carboxamide]
  IC50: < 50 nM

## Nc1ncc(-c2cccc(C(=O)NCc3ccc(Br)cc3F)c2)nc1C(=O)N[C@H]1CCCNC1 [Example 871, 3-amino-6-[3-({[(4-bromo-2-fluorophenyl)methyl]amino}carbonyl)phenyl]-N-[(3S)-piperidin-3-yl]pyrazine-2-carboxamide]
  IC50: < 50 nM

## Nc1ncc(-c2cccc(C(=O)NCc3ccccc3Br)c2)nc1C(=O)N[C@H]1CCCNC1 [Example 872, 3-amino-6-[3-({[(2-bromophenyl)methyl]amino}carbonyl)phenyl]-N-[(3S)-piperidin-3-yl]pyrazine-2-carboxamide]
  IC50: < 50 nM

## Nc1ncc(-c2cccc(C(=O)NCc3ccc(F)cc3C(F)(F)F)c2)nc1C(=O)N[C@H]1CCCNC1 [Example 873, 3-amino-6-{3-[({[4-fluoro-2-(trifluoromethyl)phenyl]methyl}amino)carbonyl]phenyl}-N-[(3S)-piperidin-3-yl]pyrazine-2-carboxamide]
  IC50: < 50 nM

## Nc1ncc(-c2cccc(C(=O)NCc3cccc(C(F)(F)F)c3F)c2)nc1C(=O)N[C@H]1CCCNC1 [Example 874, 3-amino-6-{3-[({[2-fluoro-3-(trifluoromethyl)phenyl]methyl}amino)carbonyl]phenyl}-N-[(3S)-piperidin-3-yl]pyrazine-2-carboxamide]
  IC50: < 50 nM

## Nc1ncc(-c2cccc(C(=O)NC[C@@H]3CCNC3)c2)nc1C(=O)N[C@H]1CCCNC1 [Example 875, 3-amino-N-[(3S)-piperidin-3-yl]-6-[3-({[(3R)-pyrrolidin-3-ylmethyl]amino}carbonyl)phenyl]pyrazine-2-carboxamide]
  IC50: < 50 nM

## Nc1ncc(-c2cccc(C(=O)N[C@@H]3CCNC3)c2)nc1C(=O)N[C@H]1CCCNC1 [Example 876, 3-amino-N-[(3S)-piperidin-3-yl]-6-(3-{[(3R)-pyrrolidin-3-ylamino]carbonyl}phenyl)pyrazine-2-carboxamide]
  IC50: < 50 nM

## Nc1ncc(-c2cccc(C(=O)NCCN3CCCCC3)c2)nc1C(=O)N[C@H]1CCCNC1 [Example 877, 3-amino-N-[(3S)-piperidin-3-yl]-6-(3-{[(2-piperidin-1-ylethyl)amino]carbonyl}phenyl)pyrazine-2-carboxamide]
  IC50: < 50 nM

## Nc1ncc(-c2cccc(C(=O)NCCc3ccccc3)c2)nc1C(=O)N[C@H]1CCCNC1 [Example 878, 3-amino-6-(3-{[(2-phenylethyl)amino]carbonyl}phenyl)-N-[(3S)-piperidin-3-yl]pyrazine-2-carboxamide]
  IC50: < 50 nM

## COCCNC(=O)c1cccc(-c2cnc(N)c(C(=O)N[C@H]3CCCNC3)n2)c1 [Example 879, 3-amino-6-[3-({[2-(methyloxy)ethyl]amino}carbonyl)phenyl]-N-[(3S)-piperidin-3-yl]pyrazine-2-carboxamide]
  IC50: 50 to 1000 nM

## Nc1ncc(-c2cccc(C(=O)NCc3ccc(I)cc3)c2)nc1C(=O)N[C@H]1CCCNC1 [Example 880, 3-amino-6-[3-({[(4-iodophenyl)methyl]amino}carbonyl)phenyl]-N-[(3S)-piperidin-3-yl]pyrazine-2-carboxamide]
  IC50: < 50 nM

## Nc1ncc(-c2cccc(C(=O)NCc3ccccc3Cl)c2)nc1C(=O)N[C@H]1CCCNC1 [Example 881, 3-amino-6-[3-({[(2-chlorophenyl)methyl]amino}carbonyl)phenyl]-N-[(3S)-piperidin-3-yl]pyrazine-2-carboxamide]
  IC50: < 50 nM

## Nc1ncc(-c2cccc(CNC(=O)c3ccc(F)cc3)c2)nc1C(=O)N[C@H]1CCCNC1 [Example 882, 3-amino-6-[3-({[(4-fluorophenyl)carbonyl]amino}methyl)phenyl]-N-[(3S)-piperidin-3-yl]pyrazine-2-carboxamide]
  IC50: < 50 nM
